Reference: ChEMBL document CHEMBL1697781, “Assessment of the health effects of chemicals in humans: II. Construction of an adverse effects database for QSAR modeling” (Curr Drug Discov Technol, 2004)

How the values were obtained:
Conditions in all cases: human; call rule not given here
Hepatotoxicity [1] = assay: FDA HLAED, alkaline phosphatase increase
Hepatotoxicity [2] = assay: FDA HLAED, gamma-glutamyl transferase (GGT) increase
Hepatotoxicity [3] = assay: FDA HLAED, serum glutamic oxaloacetic transaminase (SGOT) increase
Hepatotoxicity [4] = assay: FDA HLAED, serum glutamic pyruvic transaminase (SGPT) increase
Hepatotoxicity [5] = assay: FDA HLAED, lactate dehydrogenase (LDH) increase
Hepatotoxicity [6] = assay: FDA HLAED, liver enzyme composite activity

| Compound | Alkaline Phosphatase Increase - Activity Score (Hepatotoxicity [1]) | Alkaline Phosphatase Increase - Index Value (Hepatotoxicity [1]) | Alkaline Phosphatase Increase - Number of Reports (Hepatotoxicity [1]) | GGT Increase - Activity Score (Hepatotoxicity [2]) | GGT Increase - Index Value (Hepatotoxicity [2]) | GGT Increase - Number of Reports (Hepatotoxicity [2]) | SGOT Increase - Activity Score (Hepatotoxicity [3]) | SGOT Increase - Index Value (Hepatotoxicity [3]) | SGOT Increase - Number of Reports (Hepatotoxicity [3]) | SGPT Increase - Activity Score (Hepatotoxicity [4]) | SGPT Increase - Index Value (Hepatotoxicity [4]) | SGPT Increase - Number of Reports (Hepatotoxicity [4]) | LDH Increase - Activity Score (Hepatotoxicity [5]) | LDH Increase - Index Value (Hepatotoxicity [5]) | LDH Increase - Number of Reports (Hepatotoxicity [5]) | Composite Activity - Active (Hepatotoxicity [6]) | Composite Activity - Marginal (Hepatotoxicity [6]) | Composite Activity - Score (Hepatotoxicity [6]) | also measured |
| --- | --- | --- | --- | --- | --- | --- | --- | --- | --- | --- | --- | --- | --- | --- | --- | --- | --- | --- | --- |
| CC1COc2c(N3CCN(C)CC3)c(F)cc3c(=O)c(C(=O)O)cn1c23 (stereo unspecified) [OFLOXACIN] | Inactive | 1.2 | >= 4 | Inactive | 0.5 | < 4 | Inactive | 1.9 | >= 4 | Inactive | 2.1 | >= 4 | Inactive | 1.2 | >= 4 | 0 | 0 | Inactive |  |
| Cc1cc2c(s1)Nc1ccccc1N=C2N1CCN(C)CC1 [OLANZAPINE] | Marginally Active | 3.7 | >= 4 | Active | 9.1 | >= 4 | Active | 16.5 | >= 4 | Active | 15.5 | >= 4 | Inactive | 2.1 | >= 4 | 3 | 1 | Active |  |
| CN(C)CC/C=C1/c2ccccc2COc2ccc(CC(=O)O)cc21 [OLOPATADINE] | Inactive | 0 | < 4 | Inactive | 0 | < 4 | Inactive | 0 | < 4 | Inactive | 0 | < 4 | Inactive | 0 | < 4 | 0 | 0 | Inactive |  |
| O=C(O)c1cc(/N=N/c2ccc(O)c(C(=O)O)c2)ccc1O [OLSALAZINE] | Inactive | 0.7 | < 4 | Inactive | 0 | < 4 | Inactive | 2.2 | < 4 | Inactive | 1.5 | < 4 | Inactive | 0.7 | < 4 | 0 | 0 | Inactive |  |
| COc1ccc2[nH]c([S+]([O-])Cc3ncc(C)c(OC)c3C)nc2c1 (stereo unspecified) [OMEPRAZOLE] | Inactive | 1.8 | >= 4 | Inactive | 0.8 | >= 4 | Inactive | 1.2 | >= 4 | Inactive | 0.9 | >= 4 | Inactive | 0.5 | >= 4 | 0 | 0 | Inactive |  |
| Cc1nccn1CC1CCc2c(c3ccccc3n2C)C1=O (stereo unspecified) [ONDANSETRON] | Inactive | 0.5 | >= 4 | Inactive | 0 | < 4 | Inactive | 1.1 | >= 4 | Inactive | 1.3 | >= 4 | Inactive | 0.9 | >= 4 | 0 | 0 | Inactive |  |
| O=C(O)CCc1nc(-c2ccccc2)c(-c2ccccc2)o1 [OXAPROZIN] | Inactive | 0.2 | < 4 | Inactive | 0.4 | < 4 | Inactive | 0.9 | >= 4 | Inactive | 0.8 | >= 4 | Inactive | 0.4 | >= 4 | 0 | 0 | Inactive |  |
| Clc1ccc(CO/N=C(\Cn2ccnc2)c2ccc(Cl)cc2Cl)c(Cl)c1 [OXICONAZOLE] | Inactive | 0 | < 4 | Inactive | 0 | < 4 | Inactive | 0 | < 4 | Inactive | 0 | < 4 | Inactive | 0 | < 4 |  |  |  | Composite Activity - Active (Hepatotoxicity [6]; Liver): 0; Composite Activity - Marginal (Hepatotoxicity [6]; Liver): 0; Composite Activity - Score (Hepatotoxicity [6]; Liver): Inactive |
| C[N+](C)(C)CCO.Cn1c(=O)c2[n-]cnc2n(C)c1=O [OXTRIPHYLLINE] | Inactive | 0 | < 4 | Inactive | 0 | < 4 | Inactive | 0 | < 4 | Inactive | 0 | < 4 | Inactive | 0 | < 4 | 0 | 0 | Inactive |  |
| CC(=O)O[C@H]1C(=O)[C@@]2(C)[C@H]([C@H](OC(=O)c3ccccc3)[C@]3(O)C[C@H](OC(=O)[C@H](O)[C@@H](NC(=O)c4ccccc4)c4ccccc4)C(C)=C1C3(C)C)[C@]1(OC(C)=O)CO[C@@H]1C[C@@H]2O [PACLITAXEL] | Marginally Active | 3.7 | >= 4 | Inactive | 1.2 | >= 4 | Inactive | 2.5 | >= 4 | Inactive | 0.8 | < 4 | Inactive | 2.2 | >= 4 |  |  |  | Composite Activity - Active (Hepatotoxicity [6]; Liver): 0; Composite Activity - Marginal (Hepatotoxicity [6]; Liver): 1; Composite Activity - Score (Hepatotoxicity [6]; Liver): Inactive |
| NCCC(O)(P(=O)(O)O)P(=O)(O)O [PAMIDRONIC ACID] | Active | 16.6 | >= 4 | Active | 12.4 | < 4 | Inactive | 4.1 | < 4 | Inactive | 4.1 | < 4 | Inactive | 4.1 | < 4 | 2 | 0 | Active |  |
| Fc1ccc([C@@H]2CCNC[C@H]2COc2ccc3c(c2)OCO3)cc1 [PAROXETINE] | Inactive | 0.7 | >= 4 | Inactive | 0.5 | >= 4 | Inactive | 1.2 | >= 4 | Inactive | 1 | >= 4 | Inactive | 0.4 | >= 4 | 0 | 0 | Inactive |  |
